Laboratory results: ChEMBL document CHEMBL1201862, “PubChem BioAssay data set” (2004)
Active and inactive are the calls of the source.

Experiments:
[1] = target: Voltage-gated inwardly rectifying potassium channel KCNH2 (Homo sapiens, UniProt Q12809); conditions: Potency;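 note: confirmatory quantitative high-throughput screen measuring inhibition of hERG channel activity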
CHO-K1 = assay: (§1) Counterscreen for antagonists of the orexin 1 receptor (OX1R; HCRTR1): Homogeneous time resolved fluorescence (HTRF)-based cell-based dose response assay to identify antagonists of the parental CHO-K1 cell line. [Related pubchem assays (depositor defined):AID434989, AID435008, AID463079, AID485270, AID492963, AID492964, AID492965, AID493232, AID504699, AID504701]; assay type: functional; conditions: Cricetulus griseus
[2] = as §1, with “Fluorescence-based” for “Homogeneous time resolved fluorescence (HTRF)-based”, “cell-based high throughput” for “cell-based”, “CHO” for “CHO-K1”; assay type: functional
[3] = target: T1, Orexin/Hypocretin receptor type 1 (Homo sapiens, UniProt O43613); assay: Homogeneous Time Resolved Fluorescence (HTRF)-based cell-based high throughput dose response assay for antagonists of the orexin 1 receptor (OX1R; HCRTR1). [Related pubchem assays (depositor defined):AID434989, AID435008, AID463079, AID485270, AID492963, AID492964, AID492965, AID493232, AID504717, AID504718]; assay type: functional
T1 sequence (O43613 whole entry): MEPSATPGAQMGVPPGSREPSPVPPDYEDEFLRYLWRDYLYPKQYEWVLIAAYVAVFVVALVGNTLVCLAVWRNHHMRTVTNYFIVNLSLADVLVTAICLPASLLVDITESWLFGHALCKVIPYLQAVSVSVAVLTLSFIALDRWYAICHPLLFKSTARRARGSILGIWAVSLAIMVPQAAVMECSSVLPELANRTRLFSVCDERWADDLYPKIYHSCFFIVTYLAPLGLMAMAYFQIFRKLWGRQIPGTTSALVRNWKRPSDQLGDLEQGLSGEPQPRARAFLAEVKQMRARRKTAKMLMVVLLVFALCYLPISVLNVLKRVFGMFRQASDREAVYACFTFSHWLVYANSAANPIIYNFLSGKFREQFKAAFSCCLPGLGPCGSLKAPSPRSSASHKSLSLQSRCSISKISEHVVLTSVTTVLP

[4] = target: T1, Orexin/Hypocretin receptor type 1; assay: Fluorescence-based cell-based high throughput dose response assay for antagonists of the orexin 1 receptor (OX1R; HCRTR1). [Related pubchem assays (depositor defined):AID434989, AID435008, AID463079, AID485270, AID492963, AID492964, AID492965, AID493232, AID504717, AID504718]; assay type: functional
Beta-galactosidase = Beta-galactosidase (Escherichia coli, UniProt Q8VNN2); assay: PubChem AID 485352; assay type: functional
Beta-galactosidase, sequence (Q8VNN2 whole entry): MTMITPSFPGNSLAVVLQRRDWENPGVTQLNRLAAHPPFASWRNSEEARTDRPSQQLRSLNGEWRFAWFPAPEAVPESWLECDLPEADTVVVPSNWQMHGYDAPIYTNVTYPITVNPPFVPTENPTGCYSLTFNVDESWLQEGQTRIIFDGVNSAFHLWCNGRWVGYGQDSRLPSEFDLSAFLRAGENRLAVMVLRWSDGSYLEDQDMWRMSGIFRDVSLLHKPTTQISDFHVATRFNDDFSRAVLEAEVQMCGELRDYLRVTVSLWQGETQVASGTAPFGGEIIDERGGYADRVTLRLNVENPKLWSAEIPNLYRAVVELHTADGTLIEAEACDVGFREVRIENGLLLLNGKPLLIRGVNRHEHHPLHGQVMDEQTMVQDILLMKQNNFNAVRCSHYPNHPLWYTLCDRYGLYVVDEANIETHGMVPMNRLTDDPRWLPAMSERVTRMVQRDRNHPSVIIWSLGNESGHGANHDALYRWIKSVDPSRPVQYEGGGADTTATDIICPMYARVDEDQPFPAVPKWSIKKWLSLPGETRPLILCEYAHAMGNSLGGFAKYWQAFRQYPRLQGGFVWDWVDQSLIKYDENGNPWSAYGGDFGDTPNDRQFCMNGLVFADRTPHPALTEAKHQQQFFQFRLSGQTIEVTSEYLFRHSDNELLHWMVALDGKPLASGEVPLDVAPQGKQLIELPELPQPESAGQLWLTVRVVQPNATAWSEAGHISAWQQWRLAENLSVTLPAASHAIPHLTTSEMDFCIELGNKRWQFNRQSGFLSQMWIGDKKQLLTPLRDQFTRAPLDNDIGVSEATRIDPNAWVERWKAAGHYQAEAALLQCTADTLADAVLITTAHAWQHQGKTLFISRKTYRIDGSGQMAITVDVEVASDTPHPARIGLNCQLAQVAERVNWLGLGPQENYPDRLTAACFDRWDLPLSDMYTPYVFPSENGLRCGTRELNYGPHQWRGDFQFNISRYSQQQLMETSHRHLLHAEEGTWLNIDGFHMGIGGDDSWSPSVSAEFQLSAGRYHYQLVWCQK

[5] = target: T2, Type-1 angiotensin II receptor (Homo sapiens, UniProt P30556); assay: antagonism of angiotensin II type 1 receptor – cell-based, uHTS hits, selectivity assay for APJ receptor antagonist project, dose response (AID 463214); assay type: functional;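 note: antagonist potency against angiotensin II stimulated AT1 response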
T2 sequence (P30556 whole entry): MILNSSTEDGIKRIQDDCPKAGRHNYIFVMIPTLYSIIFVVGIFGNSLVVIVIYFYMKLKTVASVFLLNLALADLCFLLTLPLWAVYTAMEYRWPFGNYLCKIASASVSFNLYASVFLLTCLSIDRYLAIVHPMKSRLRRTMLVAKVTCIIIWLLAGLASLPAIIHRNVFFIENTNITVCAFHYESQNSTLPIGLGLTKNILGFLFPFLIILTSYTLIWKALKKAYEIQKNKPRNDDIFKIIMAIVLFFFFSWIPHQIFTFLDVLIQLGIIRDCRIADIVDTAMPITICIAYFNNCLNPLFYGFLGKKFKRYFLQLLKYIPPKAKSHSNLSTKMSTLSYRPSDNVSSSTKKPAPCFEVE

INS1 = assay: INS-1E survival protection against cytokine death – cell-based, luminescence, retest, dose response (AID 449756); assay type: functional; conditions: Rattus norvegicus;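 note: cell death triggered by IL-1 beta plus TNF-alpha plus IFN-gamma mixture; protective hits raise ATP signal compared with cytokine alone wells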
H9c2 = assay: cells; assay type: functional, cell-based; conditions: Rattus norvegicus, H9c2, Myocardium;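 note: confirmatory concentration-response retest of ultra-high-throughput screening hits for modulation of myocardial damage; cell death induced by hydrogen peroxide oxidative stress; compound pretreatment for 60 min then peroxide exposure for 2 h; potency is for protecting the cells against peroxide damage rather than for killing them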
[6] = target: T3, E3 ubiquitin-protein ligase XIAP (Homo sapiens, UniProt P98170); assay: Counter Screen using XIAP-Bir3 for Chemical Antagonists of Bir1/2 domains of IAP-family anti-apoptotic proteins. [Related pubchem assays (depositor defined):AID1018, AID1449, AID1514, AID1638, AID1749, AID1750, AID488957, AID488963]
T3 sequence (P98170 whole entry): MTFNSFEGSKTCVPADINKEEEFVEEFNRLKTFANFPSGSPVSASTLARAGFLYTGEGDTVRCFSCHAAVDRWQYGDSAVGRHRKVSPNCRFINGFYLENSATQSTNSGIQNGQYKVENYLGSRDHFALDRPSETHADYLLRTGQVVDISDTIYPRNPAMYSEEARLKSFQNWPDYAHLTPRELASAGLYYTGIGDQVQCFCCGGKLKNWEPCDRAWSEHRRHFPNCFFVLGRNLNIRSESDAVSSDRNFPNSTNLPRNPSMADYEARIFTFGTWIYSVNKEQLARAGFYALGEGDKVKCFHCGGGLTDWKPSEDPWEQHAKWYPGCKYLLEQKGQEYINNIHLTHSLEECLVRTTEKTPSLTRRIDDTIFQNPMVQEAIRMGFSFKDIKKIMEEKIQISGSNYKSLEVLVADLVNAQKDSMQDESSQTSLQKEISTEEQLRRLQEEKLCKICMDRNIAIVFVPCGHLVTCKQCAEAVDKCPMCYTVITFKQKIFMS

[7] = target: T3, E3 ubiquitin-protein ligase XIAP; assay: small molecules displacing peptide from XIAP – biochemical, IAP family, fluorescence polarization (AID 1018); assay type: functional
Vero = assay: viability of Vero cells under compound – cytotoxicity control for flavivirus capping enzyme inhibitors (AID 588742); assay type: functional; conditions: Chlorocebus sabaeus
[8] = target: T4, Heat shock factor protein 1 (Mus musculus, UniProt P38532); assay: enhancement of HSF1-driven luciferase signal – cell-based, NIH3T3, luminescence, dose retest, confirmation (AID 435004); assay type: functional;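 note: stress induced by proteasome inhibitor MG132 added 30 min after compound; luciferase reporter driven by HSF1 response element in NIH3T3 cells; actives raise luminescence as potentiators of the MG132 stress response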
T4 sequence (P38532 whole entry): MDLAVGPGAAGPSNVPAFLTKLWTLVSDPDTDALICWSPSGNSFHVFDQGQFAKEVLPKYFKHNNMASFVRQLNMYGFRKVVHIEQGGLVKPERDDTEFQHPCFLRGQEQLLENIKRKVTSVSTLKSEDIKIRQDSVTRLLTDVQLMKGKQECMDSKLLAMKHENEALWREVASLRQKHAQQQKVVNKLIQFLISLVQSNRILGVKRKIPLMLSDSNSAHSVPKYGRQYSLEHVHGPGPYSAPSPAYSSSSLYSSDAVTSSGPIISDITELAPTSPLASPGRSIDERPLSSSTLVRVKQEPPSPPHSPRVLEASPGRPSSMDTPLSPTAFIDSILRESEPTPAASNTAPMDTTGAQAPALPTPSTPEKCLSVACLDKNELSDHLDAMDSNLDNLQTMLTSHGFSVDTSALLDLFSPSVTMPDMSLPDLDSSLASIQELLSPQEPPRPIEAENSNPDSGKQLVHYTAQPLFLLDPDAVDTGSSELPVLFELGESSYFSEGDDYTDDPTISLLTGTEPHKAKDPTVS

[9] = NIH-3T3 fibroblast cytotoxicity, dose response, cytotoxicity control, cell-based, fluorescence, Alamar Blue, secondary assay (AID 2327); assay type: functional;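 note: NIH-3T3 mouse fibroblasts cultured with fluconazole at 8 µg/mL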
[10] = fluconazole-exposed Candida albicans growth modulators – fluorescence, retest, confirmation (AID 2467); assay type: functional, cell-based
[11] = Trypanosoma cruzi growth suppression in host cells – NIH3T3 host cells, beta-gal luminescence, confirmation (AID 2044); assay type: functional, cell-based;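 note: intracellular parasites grown in NIH/3T3 mouse fibroblasts as host cells; luminescent beta-galactosidase reporter signal from transgenic T. cruzi replicating inside host cells; inhibitors lower the luminescence signal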
[12] = NIH3T3 cell viability loss – ATP luminescence, mouse fibroblasts, counter-screen, dose response (AID 2010); assay type: functional, cell-based;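 note: cells exposed to compound for about 90 hours before reading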
[13] = target: DNA dC->dU-editing enzyme APOBEC-3A (Homo sapiens, UniProt P31941); assay: Dose Response confirmation of small molecule APOBEC3A DNA Deaminase Inhibitors via a fluorescence-based single-stranded DNA deaminase assay. [Related pubchem assays (depositor defined):AID493011, AID493024]; assay type: functional
DNA dC->dU-editing enzyme APOBEC-3A, sequence (P31941 whole entry): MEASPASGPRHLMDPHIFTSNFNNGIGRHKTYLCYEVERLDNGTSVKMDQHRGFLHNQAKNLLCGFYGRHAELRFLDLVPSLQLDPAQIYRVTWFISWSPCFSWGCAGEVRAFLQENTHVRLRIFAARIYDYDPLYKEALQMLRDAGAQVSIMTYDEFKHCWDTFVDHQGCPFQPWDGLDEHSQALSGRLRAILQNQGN

[14] = target: DNA dC->dU-editing enzyme APOBEC-3G (Homo sapiens, UniProt Q9HC16); assay type: functional;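 note: Dose-response counterscreen measuring inhibition of APOBEC3G DNA deaminase activity, run while confirming APOBEC3A inhibitors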
DNA dC->dU-editing enzyme APOBEC-3G, sequence (Q9HC16 whole entry): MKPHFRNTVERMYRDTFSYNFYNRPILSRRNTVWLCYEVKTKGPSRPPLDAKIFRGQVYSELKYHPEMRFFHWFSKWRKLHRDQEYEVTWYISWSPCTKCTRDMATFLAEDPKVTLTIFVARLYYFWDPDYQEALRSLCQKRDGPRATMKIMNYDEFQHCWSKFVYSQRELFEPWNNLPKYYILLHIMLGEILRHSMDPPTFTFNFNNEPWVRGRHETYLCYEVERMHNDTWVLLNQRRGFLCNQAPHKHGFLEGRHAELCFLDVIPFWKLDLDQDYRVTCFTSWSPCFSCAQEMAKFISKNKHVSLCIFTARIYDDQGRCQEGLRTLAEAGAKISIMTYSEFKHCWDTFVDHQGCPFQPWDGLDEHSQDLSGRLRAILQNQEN

Cytochrome P450 2C19 = Cytochrome P450 2C19 (Homo sapiens, UniProt P33261); assay: Cytochrome panel assay with activity outcomes. Panel member name: p450-cyp2c19 Compounds with AC50 equal or less than 10 uM are considered active; assay type: functional; conditions: read-out: AC50
Cytochrome P450 2C19, sequence (P33261 whole entry): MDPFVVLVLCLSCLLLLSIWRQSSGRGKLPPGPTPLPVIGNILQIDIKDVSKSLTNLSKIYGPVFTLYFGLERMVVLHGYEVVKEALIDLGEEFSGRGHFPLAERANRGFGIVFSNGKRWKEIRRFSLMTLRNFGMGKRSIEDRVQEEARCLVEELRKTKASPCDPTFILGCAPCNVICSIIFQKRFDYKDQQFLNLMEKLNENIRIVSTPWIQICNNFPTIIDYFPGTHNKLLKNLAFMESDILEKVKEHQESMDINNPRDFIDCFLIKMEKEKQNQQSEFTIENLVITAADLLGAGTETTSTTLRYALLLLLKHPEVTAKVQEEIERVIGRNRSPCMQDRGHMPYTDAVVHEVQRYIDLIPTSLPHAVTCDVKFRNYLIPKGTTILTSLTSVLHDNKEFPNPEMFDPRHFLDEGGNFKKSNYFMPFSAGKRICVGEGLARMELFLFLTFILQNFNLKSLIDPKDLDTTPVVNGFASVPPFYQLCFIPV

Cytochrome P450 3A4 = Cytochrome P450 3A4 (Homo sapiens, UniProt P08684);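 note: CYP3A4 tested as one member of a cytochrome P450 panel screen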
Cytochrome P450 3A4, sequence (P08684 whole entry): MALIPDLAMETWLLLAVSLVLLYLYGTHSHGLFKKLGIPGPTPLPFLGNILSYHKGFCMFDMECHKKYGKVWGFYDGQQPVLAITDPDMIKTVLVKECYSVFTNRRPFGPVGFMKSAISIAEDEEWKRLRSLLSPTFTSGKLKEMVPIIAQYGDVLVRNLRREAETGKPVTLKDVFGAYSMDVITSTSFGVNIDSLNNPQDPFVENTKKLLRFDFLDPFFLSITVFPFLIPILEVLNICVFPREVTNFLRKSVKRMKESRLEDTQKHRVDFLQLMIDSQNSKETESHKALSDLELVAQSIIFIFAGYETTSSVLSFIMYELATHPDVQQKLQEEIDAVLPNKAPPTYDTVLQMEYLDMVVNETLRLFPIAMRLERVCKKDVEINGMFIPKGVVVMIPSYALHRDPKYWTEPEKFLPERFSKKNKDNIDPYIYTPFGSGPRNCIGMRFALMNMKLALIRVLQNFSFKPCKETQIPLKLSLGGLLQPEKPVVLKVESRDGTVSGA

[15] = target: T5, Apoptotic protease-activating factor 1 (Homo sapiens, UniProt O14727); assay type: functional
T5 sequence (O14727 whole entry): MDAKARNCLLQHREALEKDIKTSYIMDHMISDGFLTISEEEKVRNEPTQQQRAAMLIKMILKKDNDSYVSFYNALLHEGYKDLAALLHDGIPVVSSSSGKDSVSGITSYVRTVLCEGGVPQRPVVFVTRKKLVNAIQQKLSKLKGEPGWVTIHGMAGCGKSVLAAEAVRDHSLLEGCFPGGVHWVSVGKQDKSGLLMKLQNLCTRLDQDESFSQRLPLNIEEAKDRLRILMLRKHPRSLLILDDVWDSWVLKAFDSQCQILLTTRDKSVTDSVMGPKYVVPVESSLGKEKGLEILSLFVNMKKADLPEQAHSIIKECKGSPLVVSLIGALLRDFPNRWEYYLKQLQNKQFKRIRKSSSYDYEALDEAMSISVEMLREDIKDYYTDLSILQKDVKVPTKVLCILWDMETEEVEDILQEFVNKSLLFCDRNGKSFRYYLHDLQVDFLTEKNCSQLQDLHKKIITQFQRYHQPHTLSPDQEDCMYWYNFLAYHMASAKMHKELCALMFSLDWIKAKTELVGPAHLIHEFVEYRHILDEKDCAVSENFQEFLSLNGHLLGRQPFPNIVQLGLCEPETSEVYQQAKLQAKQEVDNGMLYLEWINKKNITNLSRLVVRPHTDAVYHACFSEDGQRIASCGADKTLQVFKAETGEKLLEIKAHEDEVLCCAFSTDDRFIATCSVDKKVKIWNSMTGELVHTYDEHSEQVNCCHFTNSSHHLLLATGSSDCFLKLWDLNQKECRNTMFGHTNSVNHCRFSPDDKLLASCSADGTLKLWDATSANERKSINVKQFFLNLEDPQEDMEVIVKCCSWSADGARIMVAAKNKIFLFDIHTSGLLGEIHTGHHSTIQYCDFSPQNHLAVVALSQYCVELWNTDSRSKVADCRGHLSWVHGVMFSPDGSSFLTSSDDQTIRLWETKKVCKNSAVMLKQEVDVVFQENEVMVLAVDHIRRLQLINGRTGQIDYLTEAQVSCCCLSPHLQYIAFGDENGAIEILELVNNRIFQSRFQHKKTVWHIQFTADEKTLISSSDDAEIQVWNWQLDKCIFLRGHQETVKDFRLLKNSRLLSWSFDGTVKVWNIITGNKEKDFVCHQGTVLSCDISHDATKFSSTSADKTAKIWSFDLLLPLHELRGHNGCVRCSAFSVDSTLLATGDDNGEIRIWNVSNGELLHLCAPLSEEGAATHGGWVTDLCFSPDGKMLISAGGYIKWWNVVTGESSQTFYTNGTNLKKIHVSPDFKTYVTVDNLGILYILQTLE

[16] = decrease of insulin promoter-GFP reporter – imaging, high-content screening, mouse beta cells (AID 1628); assay type: functional; conditions: MIN6
[17] = MIN6 cell viability loss – mouse insulinoma, cytotoxicity control, dose response (AID 2122); assay type: functional;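 note: confirmatory high-throughput counterscreen run to flag cytotoxic compounds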

Voltage-gated inwardly rectifying potassium channel KCNH2, sequence (Q12809 whole entry): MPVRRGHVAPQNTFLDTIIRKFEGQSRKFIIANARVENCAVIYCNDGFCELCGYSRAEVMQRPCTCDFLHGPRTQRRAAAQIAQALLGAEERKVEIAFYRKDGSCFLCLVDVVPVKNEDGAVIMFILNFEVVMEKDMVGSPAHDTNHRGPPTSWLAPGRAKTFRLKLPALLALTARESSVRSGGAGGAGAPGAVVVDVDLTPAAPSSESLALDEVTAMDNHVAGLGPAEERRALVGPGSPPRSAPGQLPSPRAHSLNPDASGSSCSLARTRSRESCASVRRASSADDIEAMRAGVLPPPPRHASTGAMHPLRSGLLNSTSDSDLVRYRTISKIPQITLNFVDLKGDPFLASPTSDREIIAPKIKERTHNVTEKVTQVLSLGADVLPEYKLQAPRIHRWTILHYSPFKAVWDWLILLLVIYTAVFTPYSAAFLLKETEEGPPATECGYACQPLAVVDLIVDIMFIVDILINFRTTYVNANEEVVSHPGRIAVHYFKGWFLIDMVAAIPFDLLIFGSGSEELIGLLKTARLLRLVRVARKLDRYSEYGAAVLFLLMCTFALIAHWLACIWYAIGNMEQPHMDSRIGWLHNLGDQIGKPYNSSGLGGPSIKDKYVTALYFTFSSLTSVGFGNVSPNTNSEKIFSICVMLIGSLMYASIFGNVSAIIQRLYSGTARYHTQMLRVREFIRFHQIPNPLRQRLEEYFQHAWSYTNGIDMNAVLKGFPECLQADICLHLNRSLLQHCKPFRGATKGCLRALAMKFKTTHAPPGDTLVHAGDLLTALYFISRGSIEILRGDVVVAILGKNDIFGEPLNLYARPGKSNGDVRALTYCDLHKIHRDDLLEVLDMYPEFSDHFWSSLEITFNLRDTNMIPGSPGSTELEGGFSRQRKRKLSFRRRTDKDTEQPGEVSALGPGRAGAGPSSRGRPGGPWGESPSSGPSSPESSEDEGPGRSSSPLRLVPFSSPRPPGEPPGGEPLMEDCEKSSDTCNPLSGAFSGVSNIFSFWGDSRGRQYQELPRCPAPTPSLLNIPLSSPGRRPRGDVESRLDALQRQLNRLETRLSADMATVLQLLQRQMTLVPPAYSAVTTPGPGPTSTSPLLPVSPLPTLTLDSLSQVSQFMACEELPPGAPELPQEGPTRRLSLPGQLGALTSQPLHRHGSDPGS

Q: For CCCCOC(=O)c1ccccc1C(=O)OCCCC [DIBUTYL PHTHALATE], which AC50 [1] is on record?
A: Its AC50 is 79.4 µM (inconclusive).

Q: Which results are given for O=c1sc(Nc2ccccc2)nc2ccsc12?
A: IC50 (CHO-K1): > 66.2 µM (inactive); IC50 [2]: > 49.8 µM (inactive); IC50 [3]: 2.43 µM (active); IC50 [4]: 12.9 µM (inactive)

Q: For COc1ccc2c(c1)C(=O)[C@@H](O)[C@H](c1ccc(OC)c(Br)c1)O2, which EC50 (Beta-galactosidase) is on record?
A: Its EC50 is > 40 µM (inactive).

Q: And the IC50 [5]?
A: Its IC50 is 34.6 µM (not active).

Q: And the AC50 (INS1)?
A: The AC50 was 4.2 µM (active).

Q: What about the IC50 (H9c2) of the same compound?
A: The IC50 was > 79 µM (inactive).

Q: For CC(/C=C/c1cccc(Oc2ccc(F)cc2)c1)N(O)C(N)=O (configuration not stated), which AC50 [1] is on record?
A: The AC50 was 0.2 µM (inconclusive).

Q: With c1ccc(CCc2nc(-c3ccc(-n4cccc4)cc3)no2)cc1 as the compound, how does the IC50 [6] read?
A: Its IC50 is > 100 µM (inactive).

Q: What about the IC50 [7] of the same compound?
A: Its IC50 is > 100 µM (not active).

Q: With COc1ccc(C(=O)NC2CC(C)(C)Cc3occc32)cc1 (configuration not stated) as the compound, how does the CC50 (Vero) read?
A: The CC50 was > 40 µM (active).

Q: With O=C=Nc1ccc(Cc2ccc(N=C=O)cc2)cc1 as the compound, how does the AC50 [1] read?
A: The AC50 was 79.4 µM (inconclusive).

Q: Which EC50 (Beta-galactosidase) does the source give for COC(=O)C1NN=C(C(=O)c2ccc(Cl)cc2)C1c1ccc(OC)cc1 (configuration not stated) here?
A: Its EC50 is > 40 µM (inactive).

Q: And the IC50 [5]?
A: The IC50 was 28.4 µM (not active).

Q: And the EC50 [8]?
A: The EC50 was > 260 µM (inactive).

Q: Which EC50 [9] does the source give for CN(/C=C/C1=[N+](C)c2ccccc2C1(C)C)c1ccccc1 here?
A: Its EC50 is > 160 µM (inactive).

Q: What about the EC50 [10] of the same compound?
A: The EC50 was > 38 µM (not active).

Q: And the EC50 [11]?
A: Its EC50 is 0.335 µM (active).

Q: And the EC50 [12]?
A: Its EC50 is > 60 µM (inconclusive).

Q: What about the IC50 [13] of the same compound?
A: The IC50 was 1.67 µM (active).

Q: And the IC50 [14]?
A: Its IC50 is 2.31 µM (active).

Q: And the AC50 (Cytochrome P450 2C19)?
A: The AC50 was 0.00708 µM (inconclusive).

Q: What about the AC50 (Cytochrome P450 3A4) of the same compound?
A: The AC50 was 31.6 µM (inconclusive).

Q: For CC1(C)Cc2cccc(OCC(=O)N3CCN(c4cccc(C(F)(F)F)c4)CC3)c2O1, which IC50 [15] is on record?
A: Its IC50 is > 100 µM (inactive).

Q: With Cc1nn(CCC(=O)NN=C(S)Nc2ccccc2)c(C)c1Br as the compound, how does the EC50 (Beta-galactosidase) read?
A: The EC50 was > 40 µM (inactive).

Q: What about the IC50 [5] of the same compound?
A: The IC50 was > 40 µM (not active).

Q: What does the source list for Cc1cc(NC(=O)c2cnn3c(C(F)(F)F)cc(-c4ccccc4)nc23)no1?
A: IC50 [16]: 1.99 µM (active); IC50 [17]: > 16 µM (inactive)

Q: Which IC50 [6] does the source give for COC(=O)c1ccc(/C=C/C(=O)c2ccc(OC)cc2)cc1 here?
A: The IC50 was > 100 µM (inactive).

Q: What about the IC50 [7] of the same compound?
A: The IC50 was > 100 µM (not active).
